In general, inhibition refers to the relative decrease from the control value, in per cent.

Test [1] has as its system FcγR-mediated phagocytosis of anti-D-sensitized R2R2 RBCs by monocyte-macrophages. Description: Monocyte monolayer assay (MMA): inhibition of phagocytosis of anti-D-sensitized R2R2 RBCs. The class given is cell-based, human. The conditions noted are these: for inhibition of phagocytosis by chemical alone after dialysis: after extensive dialysis. The source says:
Residual and phagocytosed RBCs were distinguished by relative differences in refracted light under phase-contrast microscopy.

For test [2] the test system is unchanged. The conditions noted are these: 10^−4M, MMA (Rampersad et al.); cited from earlier work.

Consider `O[C@H](CS)[C@H](O)CS` (racemic) [DTT, Dithiothreitol], for which the inhibition at 10000 µM in test [1] (Homo sapiens, Monocyte, free, undialyzed, 10^−2M, read-out: inhibition of phagocytosis by free chemical) was approximately 30%. Besides, the “inhibition of phagocytosis by chemical alone after dialysis” value (from here on “inhibition … after dialysis”) in test [1] is reported as “no inhibition”.

As to `Cc1ccc(S(=O)(=O)CS)cc1` [p-toluenesulfonylmethyl mercaptan], the “inhibition … after dialysis” value in test [1] was “not able to inhibit phagocytosis”. In addition, the “inhibition of FcγR-mediated phagocytosis by chemical alone” value in test [2] is “approximately 70%”.

For the compound `C[CH2][Hg][S]c1ccccc1C(=O)[O-].[Na+]` [thimerosal], the “inhibition … after dialysis” value in test [1] is listed as “no longer inhibits phagocytosis”. The “inhibition of phagocytosis by undialyzed chemical alone” value in test [1] (undialyzed, 10^−5 or 10^−3 mol per L) was 100%.

The values above are taken from patent US20120321621A1, “INHIBITION OF FcyR-MEDIATED PHAGOCYTOSIS WITH REDUCED IMMUNOGLOBULIN PREPARATIONS” (priority 2008, published 2012).
